Counter-ions that a name gives are not always drawn.

The melting point is the temperature, or range, at which the solid turns liquid.

For the molecule `O=C(O)CC1=CC2(Cc3ccc(Br)cc3)C(=O)N(c3cc(Cl)cc(Cl)c3)C(=O)N2C1` (stereo not drawn) [Example 37, 5-(4-Bromobenzyl)-3-(3,5-dichlorophenyl)-7-carboxymethyl-1,3-diazabicyclo[3.3.0]oct-6-ene-2,4-dione], the melting point worked out at 101.5 °C.
The figure for `O=C(Nc1ccccc1)Nc1cccc(-c2ccc(CC34CCCN3C(=O)N(c3cc(Cl)cc(Cl)c3)C4=O)cc2)c1` (stereo not drawn) [Example 126, 5-[4-[3-(Phenylureido)phenyl]benzyl]-3-(3,5-dichlorophenyl)-1,3-diazabicyclo[3.3.0]octane-2,4-dione] is 150.2 °C; for `O=C1N(c2cc(Cl)nc(Cl)c2)C(=O)C2(Cc3cccc([N+](=O)[O-])c3)CCCN12` (stereo not drawn) [Example 239, 5-(3-Nitrobenzyl)-3-(2,6-dichloro-4-pyridyl)-1,3-diazacyclo[3.3.0]octane-2,4-dione] it is 182.8 °C.
In turn, `N#Cc1ccc(CC23CCCN2C(=O)N(c2cc(Cl)cc(-n4cccc4)c2)C3=O)cc1` (stereo not drawn) [Example 51, 5-(4-Cyanobenzyl)-3-[3-chloro-5-(1-pyrrolyl)-phenyl]-1,3-diazabicyclo[3.3.0]octane-2,4-dione] gave a melting point of 266.5 °C.
In the case of `CC(=O)Nc1ccc(-c2ccc(CC34CCCN3C(=O)N(c3cc(Cl)cc(Cl)c3)C4=O)cc2)cc1` (stereo not drawn) [Example 116, 5-[4-(4-Acetylaminophenyl)benzyl]-3-(3,5-dichlorophenyl)-1,3-diazabicyclo[3.3.0]octane-2,4-dione] it was 123.9 °C; in that of `N[C@@H]1CN2C(=O)N(c3cc(Cl)cc(Cl)c3)C(=O)[C@@]2(Cc2ccc(Br)cc2)C1` [Example 47, (5R,7S)-5-(4-Bromobenzyl)-3-(3,5-dichlorophenyl)-7-amino-1,3-diazabicyclo[3.3.0]octane-2,4-dione], 64.4 °C.
In the case of `O=C1N(c2cc(Cl)cc(Cl)c2)C(=O)C2(Cc3ccccc3)CCCN12` (stereo not drawn) [Example 267] it was 173.8 °C.
The molecule `CC(C)(C)OC(=O)N1CCC2(Cc3ccc(C#N)cc3)C(=O)N(c3cc(Cl)nc(Cl)c3)C(=O)N12` (stereo not drawn) [Example 56, 8-(t-Butoxycarbonyl)-5-(4-cyanobenzyl)-3-(2,6-dichloro-4-pyridyl)-1,3,8-triazabicyclo[3.3.0]octane-2,4-dione] registered a melting point of 179 °C.
The figure for `CS(=O)(=O)N1CCN2C(=O)N(c3cc(Cl)cc(Cl)c3)C(=O)C2(Cc2ccc(Br)cc2)C1` (stereo not drawn) [Example 33, 4-Methanesulfonyl-6-(4-bromobenzyl)-8-(3,5-dichlorophenyl)-1,4,8-triazabicyclo[4.3.0]nonane-7,9-dione] is 229 °C; for `CC(=O)NC1CN2C(=O)N(c3cc(Cl)nc(Cl)c3)C(=O)C2(Cc2ccc(OC(F)(F)F)cc2)C1` (stereo not drawn) [Example 283] it is 122.7 °C.
The figure for `CN1CCN(C(=O)CCC(=O)N[C@@H]2CN3C(=O)N(c4cc(Cl)nc(Cl)c4)C(=O)[C@@]3(Cc3ccc(OC(F)(F)F)cc3)C2)CC1` [Example 69, (5R,7S)-5-[4-(Trifluoromethoxy)benzyl]-3-(2,6-dichloro-4-pyridyl)-7-[3-(4-methyl-1-piperazinylcarbonyl)propanoylamino]-1,3-diazabicyclo[3.3.0]octane-2,4-dione] is 70 °C; for `COc1cc(OC)cc(N2C(=O)N3CCCC3(Cc3ccc(Br)cc3)C2=O)c1` (stereo not drawn) [Example 235] it is 154.8 °C; for `N[C@@H]1CN2C(=O)N(c3cc(Cl)nc(Cl)c3)C(=O)[C@@]2(Cc2ccc(OC(F)(F)F)cc2)C1` [Example 63, (5R,7S)-5-[4-(Trifluoromethoxy)benzyl]-3-(2,6-dichloro-4-pyridyl)-7-amino-1,3-diazabicyclo[3.3.0]octane-2,4-dione] it is 150.6 °C.
The figure for `CN1CCN2C(=O)N(c3cc(Cl)cc(Cl)c3)C(=O)C2(Cc2ccc(Br)cc2)C1` (stereo not drawn) [Example 29, 4-Methyl-6-(4-bromobenzyl)-8-(3,5-dichloro-phenyl)-1,4,8-triazabicyclo[4.3.0]nonane-7,9-dione] is 221 °C.
In turn, `O=C1N(c2cc(Cl)cc(Cl)c2)C(=O)C2(Cc3ccc(Br)cc3)CC(F)(F)CN12` (stereo not drawn) [Example 110, 5-(4-Bromobenzyl)-3-(3,5-dichlorophenyl)-7,7-difluoro-1,3-diazabicyclo[3.3.0]octane-2,4-dione] returned a melting point of 160.3 °C.
In the case of `COC(=O)c1ccc(CC23CCCN2C(=O)N(c2cc(Cl)c(O)c(Cl)c2)C3=O)cc1` (stereo not drawn) [Example 142, 5-(4-Methoxycarbonylbenzyl)-3-(3,5-dichloro-4-hydroxyphenyl)-1,3-diazabicyclo[3.3.0]octane-2,4-dione] it was 105.3 °C; in that of `CN(C)CCCC(=O)N[C@@H]1CN2C(=O)N(c3cc(Cl)cc(Cl)c3)C(=O)[C@@]2(Cc2ccc(OC(F)(F)F)cc2)C1` [Example 302, (5R, 7S)-5-[4-(Trifluoromethoxy)benzyl]-3-(3,5-dichlorophenyl)-7-[[4-(dimethylamino)butyryl]amino]-1,3-diazabicyclo[3.3.0]octane-2,4-dione], 57.9 °C.
In the case of `O=C(O)CNC(=O)c1c(Cl)cc(N2C(=O)N3CCCC3(Cc3ccc(Br)cc3)C2=O)cc1Cl` (stereo not drawn) [Example 227, 5-(4-Bromobenzyl)-3-[3,5-dichloro-4-(carboxymethylcarbamoyl)phenyl]-1,3-diazabicyclo[3.3.0]octane-2,4-dione], the melting point lay in the range of 157 to 158 °C.
In the case of `O=C1CN2C(=O)N(c3cc(Cl)nc(Cl)c3)C(=O)[C@@]2(Cc2ccc(OC(F)(F)F)cc2)C1` [Example 70, (5R)-5-[4-(Trifluoromethoxy)benzyl]-3-(2,6-dichloro-4-pyridyl)-7-oxo-1,3-diazabicyclo[3.3.0]octane-2,4-dione] it was 166 °C; in that of `COC(=O)N[C@@H]1CN2C(=O)N(c3cc(Cl)nc(Cl)c3)C(=O)[C@@]2(Cc2ccc(OC(F)(F)F)cc2)C1` [Example 250, (5R, 7S)-5-[4-(Trifluoromethoxy)benzyl]-3-(2,6-dichloro-4-pyridyl)-7-methoxycarbonylamino-1,3-diazabicyclo[3.3.0]octane-2,4-dione], 119.8 °C; in that of `N#Cc1cccc(N2C(=O)N3CCCC3(Cc3ccc(Br)cc3)C2=O)c1` (stereo not drawn) [Example 234], 241 °C.
In turn, `O=C1CN2C(=O)N(c3cc(Cl)cc(Cl)c3)C(=O)C2(Cc2ccc(Br)cc2)C1` (stereo not drawn) [Example 35, 5-(4-Bromobenzyl)-3-(3,5-dichlorophenyl)-1,3-diazabicyclo[3.3.0]octane-2,4,7-trione] showed a melting point of 85.4 °C.
Turning to `CCCCC(=O)N[C@@H]1CN2C(=O)N(c3cc(Cl)nc(Cl)c3)C(=O)[C@@]2(Cc2ccc(OC(F)(F)F)cc2)C1` [Example 286, (5R, 7S)-5-[4-(Trifluoromethoxy)benzyl]-3-(2,6-dichloro-4-pyridyl)-7-valerylamino-1,3-diazabicyclo[3.3.0]octane-2,4-dione], the melting point was found to be 66.8 °C.
`CC(=O)Nc1cccc(-c2ccc(CC34CCCN3C(=O)N(c3cc(Cl)cc(Cl)c3)C4=O)cc2)c1` (stereo not drawn) [Example 119] came in with a melting point of 98 °C.
In the case of `CC(=O)N[C@@H]1CN2C(=O)N(c3cc(Cl)nc(Cl)c3)C(=O)[C@@]2(Cc2ccc(OC(F)(F)F)cc2)C1` [Example 64, (5R,7S)-5-[4-(Trifluoromethoxy)benzyl]-3-(2,6-dichloro-4-pyridyl)-7-acetamido-1,3-diazabicyclo[3.3.0]octane-2,4-dione] it was 126.9 °C.
In the case of `O=C1N(c2cc(Cl)nc(Cl)c2)C(=O)C2(Cc3ccc(Br)cc3)CCCNN12` (stereo not drawn) [Example 100, 6-(4-Bromobenzyl)-8-(2,6-dichloro-4-pyridyl)-1,2,8-triazabicyclo[4.3.0] nonan-7,9-dione] it was 190 °C (dec.); in that of `CCN(CC)CCN1CCN2C(=O)N(c3cc(Cl)cc(Cl)c3)C(=O)C2(Cc2ccc(Br)cc2)C1` (stereo not drawn) (as salt: HCl) [Example 32, 4-[2-(Diethylamino)ethyl]-6-(4-bromobenzyl)-8-(3,5-dichlorophenyl)-1,4,8-triazabicyclo[4.3.0]nonane-7,9-dione], 223 °C.
Turning to `NC1CN2C(=O)N(c3cc(Cl)nc(Cl)c3)C(=O)C2(Cc2ccc(OC(F)(F)F)cc2)C1` (stereo not drawn) [Example 281], the melting point was 123.5 °C.
The figure for `CC(=O)NC(CC(=O)N[C@@H]1CN2C(=O)N(c3cc(Cl)nc(Cl)c3)C(=O)[C@@]2(Cc2ccc(OC(F)(F)F)cc2)C1)C(N)=O` (stereo partly drawn) [Example 256, (5R, 7S)-5-[4-(Trifluoromethoxy)benzyl]-3-(2,6-dichloro-4-pyridyl)-7-[(3-carbamoyl-3-acetylaminopropanoyl)amino]-1,3-diazabicyclo[3.3.0]octane-2,4-dione] is 152.8 °C.
On to `O=C1N(c2cc(Cl)cc(Cl)c2)C(=O)C2(Cc3ccc(OC(F)(F)F)cc3)C[C@@H](O)CN12` (stereo in doubt) [Example 268, (5R, 7R)-5-[4-(Trifluoromethoxy)benzyl]-3-(3,5-dichlorophenyl)-7-hydroxy-1,3-diazabicyclo[3.3.0]octane-2,4-dione], for which the melting point came out at 50.4 °C.
Regarding `CS(=O)(=O)NCC(=O)N[C@@H]1CN2C(=O)N(c3cc(Cl)nc(Cl)c3)C(=O)[C@@]2(Cc2ccc(OC(F)(F)F)cc2)C1` [Example 253, (5R, 7S)-5-[4-(Trifluoromethoxy)benzyl]-3-(2,6-dichloro-4-pyridyl)-7-[(methansulfonylaminoacetyl)amino]-1,3-diazabicyclo[3.3.0]octane-2,4-dione], the melting point worked out at 104.9 °C.
In the case of `N[C@@H]1CN2C(=O)N(c3cc(Cl)cc(Cl)c3)C(=O)[C@@]2(Cc2ccc(OC(F)(F)F)cc2)C1` [Example 300, (5R, 7S)-5-[4-(Trifluoromethoxy)benzyl]-3-(3,5-dichlorophenyl)-7-amino-1,3-diazabicyclo[3.3.0]octane-2,4-dione] it was 43.3 °C; in that of `CC(=O)N[C@@H]1CN2C(=O)N(c3cc(Cl)cc(Cl)c3)C(=O)[C@@]2(Cc2ccc(Br)cc2)C1` [Example 48, (5R,7S)-5-(4-Bromobenzyl)-3-(3,5-dichlorophenyl)-7-acetamido-1,3-diazabicyclo[3.3.0]octane-2,4-dione], 140.7 °C.

The values above are taken from patent US7342012B2, “Inhibitors of αLβ2 mediated cell adhesion” (Mitsubishi Tanabe Pharma Corporation, priority 1999, dated 2008).
